Data taken from patent US10138260B2, “Compounds of phosphinanes and azaphosphinanes, a process for their preparation and pharmaceutical compositions containing them” (LES LABORATOIRES SERVIER, priority 2016, dated 2018).

Target: T1, TAFIa (Homo sapiens, UniProt Q96IY4)
T1 sequence (Q96IY4 115-423): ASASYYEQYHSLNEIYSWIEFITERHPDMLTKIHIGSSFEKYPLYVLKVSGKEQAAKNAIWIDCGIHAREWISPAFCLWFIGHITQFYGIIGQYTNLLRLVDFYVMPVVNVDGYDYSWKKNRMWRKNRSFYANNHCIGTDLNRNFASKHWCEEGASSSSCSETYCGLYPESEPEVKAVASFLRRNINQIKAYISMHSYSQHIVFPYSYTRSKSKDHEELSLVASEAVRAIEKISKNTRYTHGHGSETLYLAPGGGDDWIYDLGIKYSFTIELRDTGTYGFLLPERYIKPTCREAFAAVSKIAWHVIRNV
Assay: Inhibition of TAFIa (hippuryl-Arg test)
Type: biochemical
Conditions: TAFIa 2 nM, hippuryl-arginine 5 mM, 45 minutes, relative to control containing the carrier; for inhibition at 0.01 µM: compound at 10 nM; for inhibition at 0.02 µM: compound at 20 nM
Method: Human TAFI (4 nM) is incubated with human thrombin (10 nM) and human thrombomodulin (5 nM) in the presence of calcium (10 mM). After incubation for 20 minutes, the activation reaction is stopped by addition of PPACK (1 μM final), an irreversible thrombin inhibitor.
The reactions take place in Hepes buffer (25 mM Hepes, 137 mM NaCl, 3.5 mM KCl)+0.1% bovine albumin, pH 7.4 at 28° C. and with stirring.
The test compound is added to the solution of TAFIa (2 nM) and incubated for 45 minutes in the presence of hippuryl-arginine (5 mM). The reaction is stopped by addition of hydrochloric acid (1M) neutralised subsequently with sodium hydroxide (1M), and then the mixture is buffered with disodium hydroxyphosphate (1M pH 7.4). […] The reaction mixture is stirred (vortex) and then centrifuged. The supernatant is transferred to a 96-well microplate, and the absorbance is measured using a spectrophotometer at 405 nm (Spectramax plus, Molecular Devices).
The OD value of a well containing the reagents without TAFI is subtracted from all the OD values measured. The percentage inhibition of TAFIa at a given concentration of the test compound is determined by means of the following formula: % inhibition=100−[(OD compound×100)/OD carrier]
The compounds are evaluated at 10 nM and 20 nM under the experimental conditions described above and the results are expressed as the percentage inhibition relative to a control containing the carrier in the absence of compound.

Row | inhibition at 0.01 µM [%] | inhibition at 0.02 µM [%] | SMILES
1 | 66 | 83 | NCCCC[C@@]1(C(=O)O)CN(Cc2ccc(O)cc2-c2ccccc2)CCP1(=O)O [Example 191, (3S)-3-(4-AMINOBUTYL)-4-HYDROXY-1-[(4-HYDROXY-2-PHENYLPHENYL)-METHYL]-4-OXO-1,4-AZAPHOSPHINANE-3-CARBOXYLIC ACID]
2 | 77 | 91 | NCCCC[C@@]1(C(=O)O)CN(Cc2ccc(F)cc2-c2ccncc2)CCP1(=O)O [Example 192, (3S)-3-(4-AMINOBUTYL)-1-[(4-FLUORO-2-PYRIDIN-4-YLPHENYL)METHYL]-4-HYDROXY-4-OXO-1,4-AZAPHOSPHINANE-3-CARBOXYLIC ACID]
3 | 64 | 80 | NCCCC[C@@]1(C(=O)O)CN(Cc2ccccc2-c2cccc(Cl)c2)CCP1(=O)O [Example 194, (3S)-3-(4-AMINOBUTYL)-1-[[2-(3-CHLOROPHENYL)PHENYL]METHYL]-4-HYDROXY-4-OXO-1,4-AZAPHOSPHINANE-3-CARBOXYLIC ACID]
4 | 74 | 87 | NCCCC[C@@]1(C(=O)O)CN(Cc2ccc(Cl)cc2-c2ccc(Cl)cc2)CCP1(=O)O [Example 195, (3S)-3-(4-AMINOBUTYL)-1-[[4-CHLORO-2-(4-CHLOROPHENYL)PHENYL]METHYL]-4-HYDROXY-4-OXO-1,4-AZAPHOSPHINANE-3-CARBOXYLIC ACID]
5 | 77 | 91 | COc1ccc(-c2ccccc2CN2CCP(=O)(O)[C@](CCCCN)(C(=O)O)C2)cn1 [Example 196, (3S)-3-(4-AMINOBUTYL)-4-HYDROXY-1-[2-(6-METHOXYPYRIDIN-3-YL)BENZYL]-4-OXO-1,4-AZAPHOSPHINANE-3-CARBOXYLIC ACID]
6 | 60 | 78 | NCCCC[C@@]1(C(=O)O)CN(Cc2ccccc2-c2ccc(F)cc2)CCP1(=O)O [Example 197, (3S)-3-(4-AMINOBUTYL)-1-[[2-(4-FLUOROPHENYL)PHENYL]METHYL]-4-HYDROXY-4-OXO-1,4-AZAPHOSPHINANE-3-CARBOXYLIC ACID]
7 | 72 | 91 | NCCCC[C@@]1(C(=O)O)CN(Cc2ccc(F)cc2-c2ccc(Cl)cc2)CCP1(=O)O [Example 198, (3S)-3-(4-AMINOBUTYL)-1-[[2-(4-CHLOROPHENYL)-4-FLUOROPHENYL]METHYL]-4-HYDROXY-4-OXO-1,4-AZAPHOSPHINANE-3-CARBOXYLIC ACID]
8 | 54 | 73 | NCCCC[C@@]1(C(=O)O)CN(Cc2ccccc2-c2cccc3ccccc23)CCP1(=O)O [Example 199, (3S)-3-(4-AMINOBUTYL)-4-HYDROXY-1-[(2-NAPHTHALEN-1-YLPHENYL)-METHYL]-4-OXO-1,4-AZAPHOSPHINANE-3-CARBOXYLIC ACID]
9 | 28 | 46 | CC(C)(C)c1ccccc1CN1CCP(=O)(O)[C@](CCCCN)(C(=O)O)C1 [Example 200, (3S)-3-(4-AMINOBUTYL)-1-[(2-TERT-BUTYLPHENYL)METHYL]-4-HYDROXY-4-OXO-1,4-AZAPHOSPHINANE-3-CARBOXYLIC ACID]
10 | 69 | 84 | COc1cc(-c2cc(F)ccc2CN2CCP(=O)(O)[C@](CCCCN)(C(=O)O)C2)ccc1F [Example 201, (3S)-3-(4-AMINOBUTYL)-1-[[4-FLUORO-2-(4-FLUORO-3-METHOXYPHENYL)-PHENYL]METHYL]-4-HYDROXY-4-OXO-1,4-AZAPHOSPHINANE-3-CARBOXYLIC ACID]
11 | 74 | 87 | NCCCC[C@@]1(C(=O)O)CN(Cc2ccccc2-c2cncc3ccccc23)CCP1(=O)O [Example 202, (3S)-3-(4-AMINOBUTYL)-4-HYDROXY-1-[(2-ISOQUINOLIN-4-YLPHENYL)-METHYL]-4-OXO-1,4-AZAPHOSPHINANE-3-CARBOXYLIC ACID]
12 | 75 | 89 | COc1cc(-c2ccccc2CN2CCP(=O)(O)[C@](CCCCN)(C(=O)O)C2)ccn1 [Example 203, (3S)-3-(4-AMINOBUTYL)-4-HYDROXY-1-[[2-(2-METHOXYPYRIDIN-4-YL)PHENYL]METHYL]-4-OXO-1,4-AZAPHOSPHINANE-3-CARBOXYLIC ACID]
